Reference: article PMC10850208, “Engineering amino acid residues of pentacyclic triterpene synthases for improving the activity” (Applied Microbiology and Biotechnology, 2024)

Key:
Assay in all cases: product titer in engineered yeast by UHPLC
Assay type in all cases: cell-based
[1] = biological target: T1, GgbAS (β-amyrin synthase from Glycyrrhiza glabra) (Glycyrrhiza glabra, UniProt Q9MB42); conditions: endogenous substrate of S. cerevisiae, not added; 30 °C, 72 h shake flask
T1 construct: gene bAS1; synthesized gene, one copy integrated in the genome of S. cerevisiae SP1, PGK1 promoter; whole-cell production

[2] = biological target: T2, MdOSC1 (α-amyrin synthase from Malus × domestica) (Malus domestica, UniProt C7SCX0); conditions: endogenous substrate of S. cerevisiae, not added; 30 °C, 72 h shake flask; mixed product with β-amyrin
T2 construct: gene OSC1; synthesized gene, one copy integrated in the genome of S. cerevisiae SP1, PGK1 promoter; whole-cell production

[3] = biological target: T3, OEW (lupeol synthase from Olea europaea) (Olea europaea, UniProt Q9SLW3); conditions: endogenous substrate of S. cerevisiae, not added; 30 °C, 72 h shake flask
T3 construct: synthesized gene, one copy integrated in the genome of S. cerevisiae SP1, PGK1 promoter; whole-cell production
T3 sequence (Q9SLW3 1-758): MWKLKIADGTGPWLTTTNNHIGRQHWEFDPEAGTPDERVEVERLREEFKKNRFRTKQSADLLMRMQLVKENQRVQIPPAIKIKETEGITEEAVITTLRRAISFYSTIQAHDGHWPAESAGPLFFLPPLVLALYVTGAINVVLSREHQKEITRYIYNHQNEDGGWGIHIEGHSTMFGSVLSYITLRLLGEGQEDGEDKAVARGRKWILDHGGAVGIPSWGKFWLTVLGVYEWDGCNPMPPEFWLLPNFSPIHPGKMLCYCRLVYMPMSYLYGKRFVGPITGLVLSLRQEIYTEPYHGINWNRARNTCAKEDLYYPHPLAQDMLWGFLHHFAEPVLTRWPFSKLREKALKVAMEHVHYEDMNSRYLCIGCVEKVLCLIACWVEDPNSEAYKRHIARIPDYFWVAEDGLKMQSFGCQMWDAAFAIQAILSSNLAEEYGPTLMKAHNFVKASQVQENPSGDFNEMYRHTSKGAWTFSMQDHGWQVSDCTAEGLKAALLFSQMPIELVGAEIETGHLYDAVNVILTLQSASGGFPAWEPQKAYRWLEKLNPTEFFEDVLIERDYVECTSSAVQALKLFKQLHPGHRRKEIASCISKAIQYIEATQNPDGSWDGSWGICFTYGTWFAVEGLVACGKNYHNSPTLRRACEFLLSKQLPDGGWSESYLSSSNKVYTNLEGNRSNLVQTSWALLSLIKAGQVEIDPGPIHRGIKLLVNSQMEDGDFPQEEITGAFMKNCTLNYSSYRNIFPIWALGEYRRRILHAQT

T1 sequence (Q9MB42 whole entry): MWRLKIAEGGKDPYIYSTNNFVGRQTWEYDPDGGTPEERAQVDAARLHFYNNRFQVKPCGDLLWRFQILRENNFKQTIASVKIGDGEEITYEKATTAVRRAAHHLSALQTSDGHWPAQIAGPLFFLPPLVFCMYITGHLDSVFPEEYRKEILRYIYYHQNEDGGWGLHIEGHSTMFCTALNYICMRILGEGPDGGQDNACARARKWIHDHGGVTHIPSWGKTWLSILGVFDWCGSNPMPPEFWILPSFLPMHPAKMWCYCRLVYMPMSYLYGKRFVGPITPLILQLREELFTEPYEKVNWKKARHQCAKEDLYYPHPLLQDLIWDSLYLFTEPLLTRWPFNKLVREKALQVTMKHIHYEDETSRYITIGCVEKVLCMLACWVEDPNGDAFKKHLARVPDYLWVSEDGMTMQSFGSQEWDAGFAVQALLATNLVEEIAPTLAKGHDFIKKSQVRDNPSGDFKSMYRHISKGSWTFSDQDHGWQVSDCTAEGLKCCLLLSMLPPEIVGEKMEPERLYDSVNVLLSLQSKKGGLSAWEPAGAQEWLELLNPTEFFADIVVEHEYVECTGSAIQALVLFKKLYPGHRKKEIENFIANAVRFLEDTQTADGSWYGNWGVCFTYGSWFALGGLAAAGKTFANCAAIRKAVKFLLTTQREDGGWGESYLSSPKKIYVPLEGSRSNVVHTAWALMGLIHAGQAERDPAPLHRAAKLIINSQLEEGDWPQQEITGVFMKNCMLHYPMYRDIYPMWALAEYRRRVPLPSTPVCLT
T2 sequence (C7SCX0 entry or part of it): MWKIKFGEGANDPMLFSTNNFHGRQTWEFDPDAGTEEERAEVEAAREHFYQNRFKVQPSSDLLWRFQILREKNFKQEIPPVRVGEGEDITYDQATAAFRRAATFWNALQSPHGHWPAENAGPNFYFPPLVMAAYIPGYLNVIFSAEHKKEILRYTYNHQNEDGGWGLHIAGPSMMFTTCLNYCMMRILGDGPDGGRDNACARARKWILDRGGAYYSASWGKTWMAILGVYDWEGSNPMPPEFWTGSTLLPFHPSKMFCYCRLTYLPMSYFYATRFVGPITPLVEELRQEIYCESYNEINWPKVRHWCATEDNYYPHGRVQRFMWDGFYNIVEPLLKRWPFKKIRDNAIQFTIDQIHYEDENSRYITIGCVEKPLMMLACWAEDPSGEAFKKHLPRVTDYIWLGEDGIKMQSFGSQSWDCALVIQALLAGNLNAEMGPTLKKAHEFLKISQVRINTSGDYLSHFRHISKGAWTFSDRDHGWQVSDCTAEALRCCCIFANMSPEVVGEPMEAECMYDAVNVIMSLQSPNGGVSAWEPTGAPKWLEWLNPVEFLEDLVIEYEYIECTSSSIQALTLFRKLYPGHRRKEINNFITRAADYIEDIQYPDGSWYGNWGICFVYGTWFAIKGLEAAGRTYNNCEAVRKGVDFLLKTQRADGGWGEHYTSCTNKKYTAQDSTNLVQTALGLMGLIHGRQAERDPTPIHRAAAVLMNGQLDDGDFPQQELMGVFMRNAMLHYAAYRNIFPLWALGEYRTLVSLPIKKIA

CC1(C)CC[C@]2(C)CC[C@]3(C)C(=CC[C@@H]4[C@@]5(C)CC[C@H](O)C(C)(C)[C@@H]5CC[C@]43C)[C@@H]2C1 [β-amyrin]
product titer in engineered yeast by UHPLC [1]: higher titer and specific titer of β-amyrin than these of strain SP1 harboring the wild-type GgbAS

C[C@H]1[C@H](C)CC[C@]2(C)CC[C@]3(C)C(=CC[C@@H]4[C@@]5(C)CC[C@H](O)C(C)(C)[C@@H]5CC[C@]43C)[C@H]12 [α-amyrin]
product titer in engineered yeast by UHPLC [2]: increase in the titer of α-amyrin and β-amyrin, compared with these of the strain SP1

C=C(C)[C@@H]1CC[C@]2(C)CC[C@]3(C)[C@H](CC[C@@H]4[C@@]5(C)CC[C@H](O)C(C)(C)[C@@H]5CC[C@]43C)[C@@H]12 [lupeol]
product titer in engineered yeast by UHPLC [3]: increase in the production of lupeol compared with that of the strain SP1 harboring
